# From publication PMC11054303, “Design and Synthesis of Novel N-Benzylidene Derivatives of 3-Amino-4-imino-3,5-dihydro-4H-chromeno[2,3-d]pyrimidine under Microwave, In Silico ADME Predictions, In Vitro Antitumoral Activities and In Vivo Toxicity” (Pharmaceuticals, 2024)
# Entries after “also recorded” stand apart in the source; their conditions may differ.
# System: Store-Operated Ca^+2 Entry (SOCE)
# Experiment: Store-operated calcium entry (SOCE) assay in HEK293 cells
# Assay type: cell-based, human
# Settings: 1.25 to 50 μM added 5 min before recording, 2 μM thapsigargin, then 1.8 mM Ca2+
# Description: Thapsigargin (TG), an inhibitor of endoplasmic reticulum Ca^+2-ATPase, is used to deplete intracellular calcium stores in a Ca^+2-free solution and therefore activate SOCE. […] In the context of a preliminary exploration of the functional effects of our molecules of interest and in the absence of a significant inhibition at a low concentration of compound 10h on the reference cell line we used (HEK293) no further exploration of the modulatory effect of this compound on cancer cell lines was initiated.
# The HEK293 cell line was maintained in DMEM High Glucose with Sodium Pyruvate ([…]) and antibiotics (1% of penicillin/streptomycin) in a humidified incubator at 37 °C, supplemented with 5% of CO2.
# For Ca^2+ measurement experiments, HEK293 cells were seeded overnight into 96 wells of a black clear bottom plate (Corning Ref: 3603) at […] in 100 µL culture medium. The resting medium was aspirated and cells were loaded with Fura-2 acetoxymethyl ester (Fura-2 QBT™) fluorochrome. […]
# Intracellular calcium levels were evaluated by recording changes in the fluorescence of the dual-wavelength fluorescent calcium-sensitive dye Fura-2AM using the plate reader FlexStation 3™ (Molecular Devices, Sunnyvale, CA, USA). Dual excitation wavelength capability permits ratiometric measurements of Fura-2AM peak fluorescence emission at 510 nm after excitations at 340 and 380. […]
structure (smiles),measurement,value
"COc1cccc2c1Oc1ncn(/N=C/c3ccccc3O)c(=N)c1C2 [10h, (3E) 3-N-(2-Hydroxyphenylmethylidene)amino-4-imino-9-methoxy-3,5-dihydro-4H-chromeno[2,3-d]pyrimidine]",inhibition of SOCE,dose-dependent inhibition; also recorded: partially inhibits SOCE in HEK293 cells in a dose-dependent manner; also recorded: dose-dependent effect but with a minor inhibitory effect on SOCE at low concentrations
